Reference: PubChem BioAssay AID2060501 (Molecular Pharmacology Branch, DTP, NCI, 2025)

System: 282377-053-R-J1-PDC complex spheroids, viability
Assay: Anticancer human tumor 282377-053-R-J1-PDC patient-derived colon adenocarcinoma cell line growth inhibition [GQUAD]
Settings: for IC50: curve of first compound; for viability, T/C: stronger effect = lower value
Description: DNA G-quadruplex Stabilizer Agents in Combinations in Complex Spheroids
A high-throughput screen of multi-cell type tumor spheroids was designed to identify active combinations of DNA G-quadruplex stabilizer agents and targeted small molecules. Complex spheroids include a stromal component modeled by human endothelial cells (HUVEC) and fibroblasts modeled by human mesenchymal stem cells (MSCs). The concentration ranges selected for each drug and investigational agent were based upon clinically achievable concentrations if the clinical Cmax of the agent was known.
Compounds. The drugs and investigational agents: pidnarulex (CX-5461; NSC782164), APTO-253 (NSC789042), BRACO-19 (NSC847499), peposertib (NSC802822), ceralasertib (NSC780249), elimusertib (NSC800525), camonsertib (NSC841442), AZD-1390 (NSC803789), olaparib (NSC753686), talazoparib (NSC767125), ART-558 (NSC835418), sotorasib (NSC818433), MRTX-1133 (NSC836407), SN-38 (NSC673596), topotecan (NSC609699), etoposide (NSC141540), doxorubicin (NSC123127), gemcitabine (NSC613327), 5-fluorouracil (NSC19893), paclitaxel (NSC125973), vemurafenib (NSC761431), panobinostat (NSC761190), R-306465 (JNJ-16241199; NSC773264), adavosertib (NSC754352), TP-3654 (NSC805149), carboplatin (NSC241240), KSQ-4279 (NSC840948), and staurosporine (NSC755774) were obtained from the National Cancer Institute (NCI) Developmental Therapeutics Program Chemical Repository (34). The FDA-approved anticancer drug set is available from the NCI Developmental Therapeutics Program. […] The stock solutions were prepared in dimethyl sulfoxide (DMSO, Sigma-Aldrich, St. Louis, MO, cat. D2650) at 800-fold the tested concentration and stored at -70 degrees C prior to their use. All drugs and investigational agents were tested over a range starting from a high concentration at or near the clinical Cmax and decreasing in half-log increments. If the clinical Cmax for an agent had not been determined, the highest concentration tested was 10 microM.
2.3 Cell Culture. All cells were maintained in an incubator at 37 degrees C and 5% CO2 with 95% humidity. The PDC lines were cultured according to standard operating procedures established by the NCI PDMR. All PDCs were thawed and cultured in Matrigel-coated flasks prepared with a working solution of 1X Ham's F-12 nutrient mix, without supplementation (Invitrogen, cat. 11765054), 100 U/mL penicillin-streptomycin (Invitrogen, cat. 15140122), and 2.5% Matrigel (Corning Inc., cat. 354248) for the first three passages. The 857933-349-R-J2-PDC line was cultured in 6C/Colon 1B media, which includes advanced DMEM/F-12 (Thermo Fisher Scientific, cat. 12634028), 10 mM HEPES (Thermo Fisher Scientific, cat. 15630080), 1X GlutaMAX supplement (Thermo Fisher Scientific, cat. 35050061), 0.1 mg/mL primocin (InvivoGen, cat. ant-pm-2), 10% defined fetal bovine serum, heat inactivated (HyClone Laboratories Inc., cat. SH30070.03HI), 50% L-WRN conditioned media (ATCC, cat. CRL-3276), 1.25 mM N-Acetyl-L-cysteine (Sigma-Aldrich, cat. A9165), 10 mM nicotinamide (Sigma-Aldrich, cat. N0636), 1X B-27 supplement (Thermo Fisher Scientific, cat. 17504044), 1X N-2 supplement (Thermo Fisher Scientific, cat. 17502048), 10 microM Y-27632 dihydrochloride (Tocris Bioscience, cat. 1254), and 50 ng/mL human EGF recombinant protein (Thermo Fisher Scientific, cat. PHG0311). The 485176-168-R4-J1-PDC line was cultured in Panc media, which includes all 6C/Colon 1B media components plus 100 ng/mL human FGF-10 (Thermo Fisher Scientific, cat. 100-26), 500 nM SB-431542 (Selleckchem, cat. S1067), and gastrin (Tocris, cat. 3006).
[…]

[1] = second compound 0.0316 µM, first compound 0.0316 µM
[2] = second compound 0.0316 µM, first compound 0.1 µM
[3] = second compound 0.0316 µM, first compound 0.316 µM
[4] = second compound 0.0316 µM, first compound 1 µM
[5] = second compound 0.0316 µM, first compound 3.16 µM
[6] = second compound 0.0316 µM, first compound 10 µM
[7] = second compound 0.1 µM, first compound 0.0316 µM
[8] = second compound 0.1 µM, first compound 0.1 µM
[9] = second compound 0.1 µM, first compound 0.316 µM
[10] = second compound 0.1 µM, first compound 1 µM
[11] = second compound 0.1 µM, first compound 3.16 µM
[12] = second compound 0.1 µM, first compound 10 µM
[13] = second compound 0.316 µM, first compound 0.0316 µM
[14] = second compound 0.316 µM, first compound 0.1 µM
[15] = second compound 0.316 µM, first compound 0.316 µM
[16] = second compound 0.316 µM, first compound 1 µM
[17] = second compound 0.316 µM, first compound 3.16 µM
[18] = second compound 0.316 µM, first compound 10 µM
[19] = second compound 1 µM, first compound 0.0316 µM
[20] = second compound 1 µM, first compound 0.1 µM
[21] = second compound 1 µM, first compound 0.316 µM
[22] = second compound 1 µM, first compound 1 µM
[23] = second compound 1 µM, first compound 3.16 µM
[24] = second compound 1 µM, first compound 10 µM
[25] = second compound 3.16 µM, first compound 0.0316 µM
[26] = second compound 3.16 µM, first compound 0.1 µM
[27] = second compound 3.16 µM, first compound 0.316 µM
[28] = second compound 3.16 µM, first compound 1 µM
[29] = second compound 3.16 µM, first compound 3.16 µM
[30] = second compound 3.16 µM, first compound 10 µM
[31] = second compound 10 µM, first compound 0.0316 µM
[32] = second compound 10 µM, first compound 0.1 µM
[33] = second compound 10 µM, first compound 0.316 µM
[34] = second compound 10 µM, first compound 1 µM
[35] = second compound 10 µM, first compound 3.16 µM
[36] = second compound 10 µM, first compound 10 µM
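Note: spheroids exposed to compounds for 7 days before readout.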
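Throughout, for viability, T/C: percent of vehicle DMSO control viability with 100% = untreated-like growth.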

Q: Which IC50 (second compound 0.0316 µM) does the source give for `CC1COCCN1c1cc(C2(O)CC3CCC(C2)O3)c2cnn(-c3ccn[nH]3)c2n1` (centres undefined) + CN(C)c1ccc(Nc2c3ccc(NC(=O)CCN4CCCC4)cc3nc3cc(NC(=O)CCN4CCCC4)ccc23)cc1 here?
A: The IC50 was 730 nM.

Q: And the IC50 (second compound 0.1 µM)?
A: The IC50 was 425 nM.

Q: What about the IC50 (second compound 0.316 µM) of the same compound?
A: Its IC50 is 632 nM.

Q: And the IC50 (second compound 1 µM)?
A: The IC50 was 649 nM.

Q: And the IC50 (second compound 3.16 µM)?
A: The IC50 was 825 nM.

Q: What about the IC50 (second compound 10 µM) of the same compound?
A: The IC50 was 734 nM.

Q: And the viability, T/C [1]?
A: Its viability, T/C is 93.4%.

Q: What about the viability, T/C [2] of the same compound?
A: Its viability, T/C is 81.5%.

Q: And the viability, T/C [3]?
A: The viability, T/C was 65.1%.

Q: What about the viability, T/C [4] of the same compound?
A: Its viability, T/C is 44.9%.

Q: What about the viability, T/C [5] of the same compound?
A: Its viability, T/C is 28.1%.

Q: What about the viability, T/C [6] of the same compound?
A: Its viability, T/C is 20.9%.

Q: And the viability, T/C [7]?
A: Its viability, T/C is 82.5%.

Q: What about the viability, T/C [8] of the same compound?
A: Its viability, T/C is 87.5%.

Q: What about the viability, T/C [9] of the same compound?
A: Its viability, T/C is 55.4%.

Q: And the viability, T/C [10]?
A: The viability, T/C was 37.3%.

Q: What about the viability, T/C [11] of the same compound?
A: The viability, T/C was 37.6%.

Q: What about the viability, T/C [12] of the same compound?
A: Its viability, T/C is 22.6%.

Q: What about the viability, T/C [13] of the same compound?
A: Its viability, T/C is 87.2%.

Q: And the viability, T/C [14]?
A: The viability, T/C was 92.6%.

Q: What about the viability, T/C [15] of the same compound?
A: The viability, T/C was 58.3%.

Q: And the viability, T/C [16]?
A: The viability, T/C was 42.3%.

Q: And the viability, T/C [17]?
A: Its viability, T/C is 34.8%.

Q: And the viability, T/C [18]?
A: Its viability, T/C is 20.6%.

Q: What about the viability, T/C [19] of the same compound?
A: The viability, T/C was 102%.

Q: What about the viability, T/C [20] of the same compound?
A: The viability, T/C was 89%.

Q: And the viability, T/C [21]?
A: Its viability, T/C is 63.6%.

Q: And the viability, T/C [22]?
A: The viability, T/C was 41%.

Q: And the viability, T/C [23]?
A: Its viability, T/C is 29.8%.

Q: What about the viability, T/C [24] of the same compound?
A: The viability, T/C was 21.5%.

Q: What about the viability, T/C [25] of the same compound?
A: Its viability, T/C is 81.9%.

Q: What about the viability, T/C [26] of the same compound?
A: Its viability, T/C is 81.2%.

Q: What about the viability, T/C [27] of the same compound?
A: The viability, T/C was 80.9%.

Q: What about the viability, T/C [28] of the same compound?
A: Its viability, T/C is 43.7%.

Q: What about the viability, T/C [29] of the same compound?
A: Its viability, T/C is 33.3%.

Q: What about the viability, T/C [30] of the same compound?
A: The viability, T/C was 23.4%.

Q: And the viability, T/C [31]?
A: Its viability, T/C is 93%.

Q: What about the viability, T/C [32] of the same compound?
A: Its viability, T/C is 72.8%.

Q: And the viability, T/C [33]?
A: The viability, T/C was 86.6%.

Q: And the viability, T/C [34]?
A: Its viability, T/C is 37.5%.

Q: And the viability, T/C [35]?
A: Its viability, T/C is 28.6%.

Q: What about the viability, T/C [36] of the same compound?
A: Its viability, T/C is 21.3%.

Q: What does the source list for `CC1COCCN1c1cc(C2(S(C)(=N)=O)CC2)nc(-c2ccnc3[nH]ccc23)n1` (centres undefined) + CN(C)c1ccc(Nc2c3ccc(NC(=O)CCN4CCCC4)cc3nc3cc(NC(=O)CCN4CCCC4)ccc23)cc1?
A: IC50 (second compound 0.0316 µM): 8450 nM; IC50 (second compound 0.1 µM): 6780 nM; IC50 (second compound 0.316 µM): 6090 nM; IC50 (second compound 1 µM): > 10000 nM; IC50 (second compound 3.16 µM): > 10000 nM; IC50 (second compound 10 µM): > 10000 nM; viability, T/C [1]: 102%; viability, T/C [2]: 90.3%; viability, T/C [3]: 73%; viability, T/C [4]: 79.6%; viability, T/C [5]: 67.8%; viability, T/C [6]: 42.2%; viability, T/C [7]: 95.1%; viability, T/C [8]: 77.2%; viability, T/C [9]: 81.2%; viability, T/C [10]: 76.5%; viability, T/C [11]: 69.3%; viability, T/C [12]: 40.5%; viability, T/C [13]: 85.5%; viability, T/C [14]: 83.3%; viability, T/C [15]: 74.4%; viability, T/C [16]: 76.2%; viability, T/C [17]: 61.8%; viability, T/C [18]: 40.8%; viability, T/C [19]: 89.8%; viability, T/C [20]: 83.7%; viability, T/C [21]: 94.2%; viability, T/C [22]: 67.6%; viability, T/C [23]: 58.8%; viability, T/C [24]: 46.2%; viability, T/C [25]: 86%; viability, T/C [26]: 89.2%; viability, T/C [27]: 86.3%; viability, T/C [28]: 68.5%; viability, T/C [29]: 64.4%; viability, T/C [30]: 49.6%; viability, T/C [31]: 82.7%; viability, T/C [32]: 88.4%; viability, T/C [33]: 116%; viability, T/C [34]: 59.7%; viability, T/C [35]: 80%; viability, T/C [36]: 56%
